The values that follow are results of earlier work, collected in patent US20190274986A1, “STERILE INJECTABLE COMPOSITION COMPRISING MELPHALAN” (CADILA HEALTHCARE LIMITED, priority 2018, published 2019).

Like-named read-outs stand apart in the source and are kept apart here. A value given as a limit tells only on which side of the number the result lay.

Assay in data set [1]: not given
The source holds these as a separate data set.

Regarding sulfobutylether beta-cyclodextrin, the “Dose with evidence of renal cellular toxicity” value (animal studies, repeated administration over 1-6 months) is on record as at least 160 mg/kg/day. In addition, the “Renal function on repeated administration” value (animal studies, repeated administration, even at much higher doses) is listed as “renal function was not impaired”. The “Renal effect in single-dose studies” value (animal trials, single-dose up to 2000 mg/kg i.v.) is reported as “renal tolerance”.
For the molecule `Cl.N[C@@H](Cc1ccc(N(CCCl)CCCl)cc1)C(=O)O` [Melphalan, 4-[bis(2-chloroethyl)amino]-L-phenylalanine hydrochloride], the values for the Solubility entry in data set [1] (in 1 N HCl), in data set [1] (in methanol) and in data set [1] (in water) were “freely soluble”, “freely soluble” and “practically insoluble”, respectively.
